We go through 1 molecule from US20240165216A1, “NOVEL R[…] OF MYC[…] AND USE OF SAME” (priority 2021, published 2024).

Experiment [1] deals with immune cells secreting IFN-γ and TNF-α. Kind of experiment: MC38 model, co-administration with cisplatin: flow cytometry of cancer tissue. It counts as in vivo, mouse. Particulars: versus control group; FIG. 34c.
A further experiment has as its system MIF. Kind of experiment: MC38 model, co-administration with cisplatin: anti-MIF antibody titer and serum cytokines. As to conditions: versus control group; FIG. 33. It counts as in vivo, mouse. An excerpt: Thus, it was considered that the production of anti-MIF antibody increased, and it was expected that the production of serum cytokines, which is a measure of the increase in immune activity in the body, would also be increased.

For the molecule `N.N.[Cl][Pt][Cl]` [cisplatin], the “TCRγδ T cells secreting IFN-γ in cancer tissue” value in experiment [1] is reported as “increased”. The “serum cytokine (IFN-γ and TNF-α) levels” value with MIF is given as “significantly increased”.
